Results on 1 substance are retold here after paper PMC5133935, “Hydrostatin-TL1, an Anti-Inflammatory Active Peptide from the Venom Gland of Hydrophis cyanocinctus in the South China Sea” (International Journal of Molecular Sciences, 2016).

Data set [1] has as its system DSS-induced inflammation of colonic mucosa, BALB/c mice. Put plainly: Colon histopathology in DSS-induced colitis. The data set is classed as in vivo, mouse. The note with it: for colon morphology (H&E): H&E 40×. The protocol: To induce colitis, 6–8 week old male BALB/c mice were administered 2.5% DSS solution in their drinking water for 7–8 consecutive days, ad libitum. Importantly, 30–40 kDa DSS was used to establish the animal model in this study because it is known to induce more severe colitis than 5 and 500 kDa DSS [37]. The mice were concomitantly administered H-TL1 (0.5 or 1 mg/kg) once daily for 7–8 consecutive days by intraperitoneal injection. Establishment of the DSS-induced colitis was evidenced by an increase in DAI, with associated weight loss, loose stool consistency, and presence of blood in the feces. DAI was monitored during the entire experiment and was assessed according to the method described in Table 1.
The colonic tissue samples were fixed in 4% neutral formalin, dehydrated with increasing concentrations of ethanol, embedded in paraffin, and subsequently cut into 5-μm thick sections, which were mounted on slides, cleared, hydrated, and stained with hematoxylin and eosin (H&E). Histological grading was assessed according to previously described criteria (Table 2), and the scoring criteria used were similar to those described previously.

Data set [2] has as its system HEK-293 cells, TNF-α-mediated NF-κB and MAPKs signaling. The data set can be described thus: Western blot, TNF-α-induced phosphorylation in HEK-293 cells. The format is cell-based, human. The note with it: TNF-α 20 ng/mL, 10 min. The source says:
The NF-κB and MAPKs pathways are key signaling pathways of TNF-α-mediated inflammation. Therefore, we analyzed the mechanisms underlying H-TL1-induced inhibition of TNF-α-mediated inflammation by Western blotting in HEK-293 cells. […] To identify the specific effects of H-TL1 on TNF-α downstream signaling, we induced IL-1β as a potent activator of NF-κB that is specific to that pathway.
(§1) The H. cyanocinctus specimens were captured during September 2005 in the South China Sea near Guangdong Province, People’s Republic of China. After collection, the snakes were killed, and the venom glands were isolated and immediately frozen in liquid nitrogen until use. HEK-293 human embryonic kidney and L929 mouse fibroblast cell lines were obtained from ATCC and cultured in Dulbecco’s modified Eagle’s medium (DMEM, Sigma-Aldrich, St. Louis, MO, USA) containing 10% (v/v) heat-inactivated fetal bovine serum (FBS, Gibco, BRL, Grand Island, NY, USA) at 37 °C in an atmosphere of 5% CO2. The BLT5403 E. coli strain (used as the phage host strain) was from Novagen (Merck) and was cultured at 37 °C for propagation. The specific pathogen-free (SPF) male BALB/c and C57BL/6 mice (both 6–8 weeks old), weighing 20 ± 2 g were purchased from Shanghai SLAC Laboratory Animal Co., Ltd. (Shanghai, China). The mice were housed in animal facilities with 50% humidity under a 12-h light-dark cycle, fed a standard pellet diet, and provided with tap water ad libitum. The animal experimental protocols in this research, including venom gland isolation and the mouse study, were approved by the Animal Care and Use Committee of the Second Military Medical University.
For Western blotting, the cell or tissue specimen extracts were resolved in a 10% SDS-PAGE gel, and then the separated proteins were transferred to a nitrocellulose filter membrane. The antigens were detected by using specific antibodies against total and phosphorylated IκB, p38, ERK, and JNK followed by incubation with the respective secondary antibodies. GAPDH was simultaneously detected as the control to compare the protein loading in each lane. The mouse monoclonal anti-IκB, mouse monoclonal anti-p-IκB (Ser32/36), rabbit monoclonal anti-ERK, and rabbit monoclonal anti-p-ERK (Thr202/Tyr204) antibodies were from Cell Signaling Technologies (Beverly, MA, USA). The mouse polyclonal anti-p-p38 (Thr180/Tyr182), rabbit polyclonal anti-p38, rabbit monoclonal anti-p-JNK (Thr183/Tyr185), and mouse monoclonal anti-JNK antibodies were from Thermo Fisher Scientific (Rockford, IL, USA). The rabbit monoclonal anti-GAPDH antibody was from Santa Cruz Biotechnology (Santa Cruz, CA, USA), and the fluorescent-labeled secondary antibodies were from Li-COR Biosciences (Lincoln, NE, USA).
(In western blotting, separated proteins are transferred to a membrane and probed.)

For the next data set, the system named is mammalian cells. The data set can be described thus: Cytotoxicity toward mammalian cells (general statement). The data set is classed as cell-based. The note with it: conclusion statement.
In the next data set the test system is L929 cells. The format is cell-based, mouse. The note with it: H-TL1 100 μM; data not shown. The procedure:
We used the L929 cell line, which is commonly chosen by researchers, to evaluate the effects of H-TL1 on TNF-α-mediated cytotoxicity. The cells were treated with TNF-α and 0.2 μg/mL actinomycin D in the presence of graded concentrations of H-TL1. Cell viability was evaluated using MTT assay. […] Furthermore, H-TL1 was not cytotoxic against L929 cells at 100 μM (data not shown), which far exceeds the concentration of H-TL1 used in the in vitro assays.
as §1, with “The mice were housed in animal facilities with 50% humidity under a 12-h light-dark cycle, fed a standard pellet diet, and provided with tap water ad libitum. The animal experimental protocols in this research, including venom gland isolation and the mouse study, were approved by the Animal Care and Use Committee of the Second Military Medical University.” left out

The test system of data set [3] is LPS-induced lung tissue damage, C57BL/6 mice. The data set can be described thus: Lung histopathology in LPS-induced acute shock. The format is in vivo, mouse. The following applies: 12 h after LPS; H&E 200×; n = 8. The protocol:
The LPS-induced acute shock model was established in male C57BL/6 mice (6–8 weeks old) that were randomly allocated to five groups. LPS was administered (15 mg/kg body weight) to induce acute shock. The LPS- or normal saline-treated mice were injected with 100 μL of normal saline with or without LPS intraperitoneally, while the H-TL1 and LPS-treated mice were each administered H-TL1 at three doses of 20, 40, and 80 μg/kg 1, 3, and 5 h after the LPS injection (Figure 5A). The mice were observed every 4 h to evaluate mortality.
To assess lung damage, lung tissues were excised, inflated with 4% neutral formalin, and H&E stained 12 h following LPS injection. The lung parenchyma was examined by light microscopy and graded based on the degree of congestion, edema, inflammation, and hemorrhage. Each characteristic was scored on a scale of 0 to 3 (0, absent; 1, light; 2, moderate; and 3, strong).

A further data set deals with TNF-α/TNFR1. The data set can be described thus: SPR analysis, TNF-α binding to chip-immobilized TNFR1. More on the design: species or system human. The following applies: H-TL1 0.5 and 1 μM; hrTNF-α 100 nM; sTNFR1 on CM5 chip, BIAcore T200; 360 s association, 200 s dissociation. The protocol: The T7Select1-2b display vector, T7 select primers, blocking reagent, and elution buffer were purchased from Novagen (Merck, Kenilworth, NJ, USA). […] DSS (36–50 kDa) was bought from MP Biomedicals (Solon, OH, USA). MTT, actinomycin D, and LPS were purchased from Sigma-Aldrich (St. Louis, MO, USA).
sTNFR1 (100 μg/mL) was covalently immobilized onto a CM5 sensor chip by the BIAcore T200 system (Biacore, GE Healthcare) following manufacturer’s instructions. To determine whether H-TL1 inhibits the binding of TNF-α to TNFR1, hrTNF-α was diluted in running buffer at 100 nM with or without different concentrations of H-TL1 (0.1, 0.5, and 1 μM) and subsequently passed over the sTNFR1-immobilized chip for 360 s, followed by dissociation for 200 s. The response unit indicates binding ability.
A general note: SPR reads the build-up and loss of mass on a sensor chip optically.

“Also recorded” adds a separate entry of the source. No end group written: not given here.

In the case of ATSKPSLKC-OH [H-TL1], the “colon morphology (H&E)” value in data set [1] (H-TL1 0.5 mg/kg, 0.5 mg/kg) is “serious colonic damage that was comparable to that of the DSS + vehicle-treated mice; also recorded: had little effect on DSS-induced colonic inflammation”. The “colon morphology (H&E)” value in data set [1] (H-TL1 1 mg/kg, 1 mg/kg) is recorded as “remarkably alleviated; also recorded: alleviated DSS-induced colonic inflammation”. In addition, the total histological score entry in data set [1] (H-TL1 1 mg/kg, n = 8, ** p < 0.01 vs. DSS only group) is on record as “significantly reduces DSS-induced inflammation of colonic mucosa”. Also, in data set [2], the “concentration inhibiting TNF-α-mediated ERK (Thr202/Tyr204) phosphorylation” value lay within 0.8 to 1.6 µM, the “concentration inhibiting TNF-α-mediated p38 (Thr180/Tyr182) phosphorylation” value fell in the range of 0.8 to 1.6 µM, the “concentration suppressing TNF-α-mediated IκB (Ser32/36) phosphorylation” value lay in the range of 0.4 to 1.6 µM and the “concentration suppressing TNF-α-mediated JNK (Thr183/Tyr185) phosphorylation” value was 0.4 to 1.6 µM. For the same substance, the “cytotoxicity toward mammalian cells” value in the data set with mammalian cells is recorded as “little cytotoxicity toward mammalian cells”. Further, in the data set on L929 cells, the “cytotoxicity against L929 cells” value is given as “not cytotoxic”. For the same substance, the “lung parenchymal damage and inflammatory cell infiltration” value in data set [3] was “markedly reduced lung parenchymal damage and inflammatory cell infiltration”. Moreover, the “attenuation of SPR response of TNF-α to TNFR1” value in the data set on TNF-α/TNFR1 is given as “inhibits the association of TNF-α with sensor chip-immobilized TNFR1; also recorded: the elicited response was markedly attenuated”.
